25 molecules from patent US20150315211A1, “SMALL MOLECULES FOR THE MODULATION OF MCL-1 AND METHODS OF MODULATING CELL DEATH, CELL DIVISION, CELL DIFFERENTIATION AND METHODS OF TREATING DISORDERS” (priority 2010, published 2015) can be followed below.

Test [1] has as its system MCL-1ΔNΔC. As to the kind of experiment: High-throughput competitive FP binding screen, FITC-MCL-1 SAHB/MCL-1ΔNΔC interaction. Particulars: selectivity for MCL-1ΔNΔC over BCL-XLΔC targeting (BCL-XL % Bound minus MCL-1 % Bound).
In the next test the target is BCL-XLΔC (Homo sapiens, UniProt Q07817). As to the kind of experiment: High-throughput competitive FP binding screen, FITC-BAD BH3/BCL-XLΔC interaction. Particulars: FITC-BAD BH3/BCL-XLΔC interaction pair, competitive FP screen.
The target in test [2] is MCL-1ΔNΔC (Homo sapiens, UniProt Q07820). As to the kind of experiment: High-throughput competitive FP binding screen, FITC-MCL-1 SAHB/MCL-1ΔNΔC interaction. More on the design: the C-terminal alpha-helix was deleted from each of these constructs; GST (N, cleaved yes); made in house. The following applies: FITC-MCL-1 SAHB/MCL-1ΔNΔC interaction pair, competitive FP screen.
MCL-1ΔNΔC (Homo sapiens, UniProt Q07820), sequence (Q07820 172-320 limits assumed, stated change not applied): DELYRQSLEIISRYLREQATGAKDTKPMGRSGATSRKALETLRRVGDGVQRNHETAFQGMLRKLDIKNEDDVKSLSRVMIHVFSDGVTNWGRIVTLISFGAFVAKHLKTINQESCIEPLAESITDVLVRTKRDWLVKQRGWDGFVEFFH

BCL-XLΔC, sequence (Q07817 1-212 limits assumed, stated change not applied): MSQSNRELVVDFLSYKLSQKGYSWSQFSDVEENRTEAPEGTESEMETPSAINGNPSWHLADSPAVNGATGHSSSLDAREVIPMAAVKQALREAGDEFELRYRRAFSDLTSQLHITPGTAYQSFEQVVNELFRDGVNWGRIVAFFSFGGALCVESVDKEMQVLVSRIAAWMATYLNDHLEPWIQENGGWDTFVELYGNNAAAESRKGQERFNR

`O=C(c1ccccc1)c1nc2ccccc2oc1=O`: in the test on MCL-1ΔNΔC [1], the “Spec Values” amounted to 62.88. For the same molecule, the “BCL-XL % Bound” value on BCL-XLΔC came to 43.27%. For the same molecule, the “MCL-1% Bound” value at MCL-1ΔNΔC [2] is on record as −19.61%.

Consider `CCCCn1c(=O)[nH]c(=O)c2c1nc(-c1cccs1)c(=O)n2C`, for which, in the test with MCL-1ΔNΔC [1], the “Spec Values” is 62.84. Besides, at BCL-XLΔC, the “BCL-XL % Bound” value came out at 68.85%. For the same molecule, the “MCL-1% Bound” value on MCL-1ΔNΔC [2] is 6.013%.

For the molecule `Oc1cccc(C(c2ccc3cccnc3c2O)N2CCCC2)c1` (stereo not drawn), in the test with MCL-1ΔNΔC [1], the “Spec Values” is 62.71. In addition, the “BCL-XL % Bound” value at BCL-XLΔC was 106.4%. For the same molecule, on MCL-1ΔNΔC [2], the “MCL-1% Bound” value was 43.7%.

Regarding `CCCCC(=O)Cc1ccco1`, the “Spec Values” in the test on MCL-1ΔNΔC [1] is reported as 62.08. Further, the “BCL-XL % Bound” value on BCL-XLΔC is on record as 103%. In addition, the “MCL-1% Bound” value at MCL-1ΔNΔC [2] came to 40.94%.

Turning to `O=C1C=CC(=O)C(CCC2=CC(=O)C=CC2=O)=C1`, in the test on MCL-1ΔNΔC [1], the “Spec Values” was 61.8. Further, the “BCL-XL % Bound” value on BCL-XLΔC turned out to be 93.01%. Besides, the “MCL-1% Bound” value at MCL-1ΔNΔC [2] was determined as 31.21%.

Take `Cc1nc(COC(=O)c2cc(O)c3ccccc3c2O)cs1`: the “Spec Values” in the test with MCL-1ΔNΔC [1] is given as 61.73. The “BCL-XL % Bound” value on BCL-XLΔC came to 101.3%. In addition, on MCL-1ΔNΔC [2], the “MCL-1% Bound” value is 39.52%.

On to `O=C(CSc1nc2c(sc(=S)n2Cc2ccco2)c(=O)n1-c1ccccc1)c1ccc(O)c(O)c1`, for which the “Spec Values” with MCL-1ΔNΔC [1] is on record as 61.48. Moreover, at BCL-XLΔC, the “BCL-XL % Bound” value is recorded as 120.9%. Further, the “MCL-1% Bound” value on MCL-1ΔNΔC [2] was found to be 59.44%.

On to `N#C/C(=C/C=C/c1ccc(-c2cc(Cl)ccc2Cl)o1)C(N)=S`, for which, in the test with MCL-1ΔNΔC [1], the “Spec Values” is recorded as 60.96. The “BCL-XL % Bound” value at BCL-XLΔC is 79.39%. In addition, the “MCL-1% Bound” value at MCL-1ΔNΔC [2] came out at 18.44%.

Turning to `Cn1c(/N=C/c2c(O)ccc3ccccc23)nc2ccc(Br)cc21`, the “Spec Values” in the test on MCL-1ΔNΔC [1] came out at 60.88. Moreover, the “BCL-XL % Bound” value on BCL-XLΔC stood at 31.24%. On MCL-1ΔNΔC [2], the “MCL-1% Bound” value was −29.64%.

For the molecule `N#CC1=C(c2ccc(Cl)cc2)COC1=O`, the “Spec Values” in the test on MCL-1ΔNΔC [1] worked out at 60.84. Further, the “BCL-XL % Bound” value on BCL-XLΔC came to 88.12%. On MCL-1ΔNΔC [2], the “MCL-1% Bound” value was found to be 27.28%.

Consider `O=C(CSc1nnc(-c2ccco2)c(-c2ccco2)n1)N1c2ccccc2Sc2ccc(Cl)cc21`, for which the “Spec Values” in the test with MCL-1ΔNΔC [1] is 60.7. Moreover, the “BCL-XL % Bound” value at BCL-XLΔC is reported as 98.3%. Also, the “MCL-1% Bound” value at MCL-1ΔNΔC [2] worked out at 37.6%.

For `N#C/C(=C/c1cn(Cc2ccc(C(=O)O)o2)c2ccccc12)c1ccc(F)cc1`, the “Spec Values” with MCL-1ΔNΔC [1] amounted to 60.36. For the same molecule, the “BCL-XL % Bound” value at BCL-XLΔC amounted to 65.03%. The “MCL-1% Bound” value on MCL-1ΔNΔC [2] came to 4.673%.

`CS/C(=N\S(=O)(=O)c1ccccc1)NNc1ccccc1`: the “Spec Values” in the test with MCL-1ΔNΔC [1] worked out at 59.46. The “BCL-XL % Bound” value at BCL-XLΔC came out at 99.39%. The “MCL-1% Bound” value on MCL-1ΔNΔC [2] is on record as 39.93%.

As to `O=C1C=CC(=O)C(CCCCCCC2=CC(=O)C=CC2=O)=C1`, in the test with MCL-1ΔNΔC [1], the “Spec Values” stood at 59.34. For the same molecule, at BCL-XLΔC, the “BCL-XL % Bound” value came to 106.5%. For the same molecule, the “MCL-1% Bound” value at MCL-1ΔNΔC [2] was found to be 47.19%.

With `Cc1ccc2c(CC(=O)NCC(=O)OCc3ccccc3)coc2c1`, the “Spec Values” in the test on MCL-1ΔNΔC [1] worked out at 59.09. The “BCL-XL % Bound” value at BCL-XLΔC amounted to 95.64%. Moreover, the “MCL-1% Bound” value at MCL-1ΔNΔC [2] came out at 36.55%.

With `Cc1ccc(C(c2c(O)ccc3ccccc23)N2CCOCC2)o1` (stereo not drawn), in the test with MCL-1ΔNΔC [1], the “Spec Values” is 59.04. Besides, on BCL-XLΔC, the “BCL-XL % Bound” value came to 100.8%. For the same molecule, the “MCL-1% Bound” value on MCL-1ΔNΔC [2] is given as 41.79%.

On to `O=c1[nH]cnc2ccc(Br)cc12`, for which the “Spec Values” with MCL-1ΔNΔC [1] is listed as 59.02. For the same molecule, the “BCL-XL % Bound” value at BCL-XLΔC is reported as 93.69%. Also, the “MCL-1% Bound” value at MCL-1ΔNΔC [2] was determined as 34.67%.

In the case of `Cc1ccc(/C=C2\C(=O)Nc3ccc(Br)cc32)o1`, the “Spec Values” in the test with MCL-1ΔNΔC [1] is reported as 58.85. The “BCL-XL % Bound” value on BCL-XLΔC was 77.59%. The “MCL-1% Bound” value at MCL-1ΔNΔC [2] is reported as 18.74%.

With `COc1cc(C2Nc3cccc4cccc(c34)N2)cc(I)c1O`, in the test with MCL-1ΔNΔC [1], the “Spec Values” was 58.66. Moreover, the “BCL-XL % Bound” value on BCL-XLΔC is listed as 81.48%. The “MCL-1% Bound” value on MCL-1ΔNΔC [2] is listed as 22.81%.

Turning to `Cc1ccccc1-c1nnc(SCC(=O)NC(=O)Nc2ccccc2F)n1C`, the “Spec Values” in the test with MCL-1ΔNΔC [1] is given as 58.58. For the same molecule, the “BCL-XL % Bound” value at BCL-XLΔC was determined as 98.1%. The “MCL-1% Bound” value at MCL-1ΔNΔC [2] is on record as 39.52%.

With `O=C1COc2ccc(-c3cs/c(=N\c4ccc(F)cc4)n3/N=C/c3ccc(O)c(O)c3)cc2N1`, the “Spec Values” in the test on MCL-1ΔNΔC [1] is 58.52. Besides, the “BCL-XL % Bound” value on BCL-XLΔC turned out to be 97.64%. For the same molecule, the “MCL-1% Bound” value at MCL-1ΔNΔC [2] worked out at 39.12%.

Consider `O=C1C2=C(C(=O)c3ccccc31)C(c1ccccc1O)c1sc(=O)[nH]c1S2` (stereo not drawn), for which the “Spec Values” in the test on MCL-1ΔNΔC [1] was found to be 58.45. Further, at BCL-XLΔC, the “BCL-XL % Bound” value worked out at 88.86%. On MCL-1ΔNΔC [2], the “MCL-1% Bound” value is listed as 30.41%.

Regarding `CN1CCCN(Cc2cc(C(C)(C)C)c(O)c(C(C)(C)C)c2)CC1`, the “Spec Values” in the test with MCL-1ΔNΔC [1] is on record as 58.29. Besides, the “BCL-XL % Bound” value at BCL-XLΔC worked out at 83.5%. For the same molecule, on MCL-1ΔNΔC [2], the “MCL-1% Bound” value is on record as 25.21%.

With `O=C(CC1C(=O)c2ccccc2S1(=O)=O)NC1=NN(c2ccccc2)C(=O)C1` (stereo not drawn), the “Spec Values” with MCL-1ΔNΔC [1] came to 57.74. Besides, the “BCL-XL % Bound” value at BCL-XLΔC is 65.35%. Moreover, the “MCL-1% Bound” value at MCL-1ΔNΔC [2] was determined as 7.61%.

Turning to `c1coc(C2Nc3cccc4cccc(c34)N2)c1`, the “Spec Values” in the test with MCL-1ΔNΔC [1] is on record as 57.32. Further, on BCL-XLΔC, the “BCL-XL % Bound” value came out at 106.3%. The “MCL-1% Bound” value on MCL-1ΔNΔC [2] is on record as 48.94%.
